# Active and inactive are the calls of the source. No cut-off for these calls is given here.
# Key:
# [1] = biological target: T1, Serine/threonine-protein kinase mTOR (Homo sapiens, UniProt P42345); test: Binding affinity to mTOR FKBP12 site (unknown origin)
# [2] = biological target: Phosphatidylinositol 4,5-bisphosphate 3-kinase catalytic subunit beta isoform (Homo sapiens, UniProt P42338)
# Description: Inhibition of human PI3Kbeta (118 to 1070 residues) expressed in mammalian expression system by KINOMEscan assay
# Rattus norvegicus = test: Increase in insulin levels in Sprague-Dawley rat plasma at 10 mg/kg, po administered as single dose; type: functional, organism-based
# [3] = biological target: Phosphatidylinositol 4,5-bisphosphate 3-kinase catalytic subunit alpha isoform (Homo sapiens, UniProt P42336)
# Chain of Phosphatidylinositol 4,5-bisphosphate 3-kinase catalytic subunit alpha isoform (P42336 whole entry, the tested form may be a part, canonical isoform): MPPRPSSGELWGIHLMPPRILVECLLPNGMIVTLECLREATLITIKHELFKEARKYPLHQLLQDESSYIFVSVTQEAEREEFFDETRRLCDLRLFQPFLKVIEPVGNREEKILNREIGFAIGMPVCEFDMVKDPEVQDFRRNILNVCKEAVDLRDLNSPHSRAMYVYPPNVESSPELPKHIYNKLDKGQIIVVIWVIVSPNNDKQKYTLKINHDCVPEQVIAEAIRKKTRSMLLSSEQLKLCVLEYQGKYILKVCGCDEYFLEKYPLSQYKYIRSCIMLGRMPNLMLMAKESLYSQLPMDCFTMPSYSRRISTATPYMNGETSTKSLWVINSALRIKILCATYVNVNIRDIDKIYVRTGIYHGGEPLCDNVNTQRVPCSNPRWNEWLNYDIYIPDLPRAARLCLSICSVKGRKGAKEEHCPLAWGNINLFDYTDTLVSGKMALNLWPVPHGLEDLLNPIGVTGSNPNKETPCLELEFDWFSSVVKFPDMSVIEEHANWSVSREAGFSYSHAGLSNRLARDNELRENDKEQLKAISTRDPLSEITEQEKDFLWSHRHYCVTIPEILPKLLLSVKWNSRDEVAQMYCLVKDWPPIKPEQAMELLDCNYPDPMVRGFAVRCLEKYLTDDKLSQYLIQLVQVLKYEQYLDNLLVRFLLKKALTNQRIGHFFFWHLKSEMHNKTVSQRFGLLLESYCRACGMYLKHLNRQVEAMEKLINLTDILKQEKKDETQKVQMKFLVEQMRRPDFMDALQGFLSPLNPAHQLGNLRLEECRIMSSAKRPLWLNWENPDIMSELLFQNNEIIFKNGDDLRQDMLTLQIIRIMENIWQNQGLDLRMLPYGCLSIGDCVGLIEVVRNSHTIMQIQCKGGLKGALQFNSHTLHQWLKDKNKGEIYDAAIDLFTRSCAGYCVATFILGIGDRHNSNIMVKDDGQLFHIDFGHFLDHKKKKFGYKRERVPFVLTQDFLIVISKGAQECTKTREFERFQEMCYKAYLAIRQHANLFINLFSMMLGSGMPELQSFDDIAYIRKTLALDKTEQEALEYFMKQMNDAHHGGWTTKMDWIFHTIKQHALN
# Description: Inhibition of human PI3Kalpha (108 to 1068 residues) expressed in mammalian expression system by KINOMEscan assay
# [4] = biological target: Phosphatidylinositol 3-kinase catalytic subunit type 3 (Homo sapiens, UniProt Q8NEB9); test: Inhibition of human VPS34 (282 to 879 residues) expressed in mammalian expression system by KINOMEscan assay
# Chain of Phosphatidylinositol 3-kinase catalytic subunit type 3 (Q8NEB9 whole entry, the tested form may be a part): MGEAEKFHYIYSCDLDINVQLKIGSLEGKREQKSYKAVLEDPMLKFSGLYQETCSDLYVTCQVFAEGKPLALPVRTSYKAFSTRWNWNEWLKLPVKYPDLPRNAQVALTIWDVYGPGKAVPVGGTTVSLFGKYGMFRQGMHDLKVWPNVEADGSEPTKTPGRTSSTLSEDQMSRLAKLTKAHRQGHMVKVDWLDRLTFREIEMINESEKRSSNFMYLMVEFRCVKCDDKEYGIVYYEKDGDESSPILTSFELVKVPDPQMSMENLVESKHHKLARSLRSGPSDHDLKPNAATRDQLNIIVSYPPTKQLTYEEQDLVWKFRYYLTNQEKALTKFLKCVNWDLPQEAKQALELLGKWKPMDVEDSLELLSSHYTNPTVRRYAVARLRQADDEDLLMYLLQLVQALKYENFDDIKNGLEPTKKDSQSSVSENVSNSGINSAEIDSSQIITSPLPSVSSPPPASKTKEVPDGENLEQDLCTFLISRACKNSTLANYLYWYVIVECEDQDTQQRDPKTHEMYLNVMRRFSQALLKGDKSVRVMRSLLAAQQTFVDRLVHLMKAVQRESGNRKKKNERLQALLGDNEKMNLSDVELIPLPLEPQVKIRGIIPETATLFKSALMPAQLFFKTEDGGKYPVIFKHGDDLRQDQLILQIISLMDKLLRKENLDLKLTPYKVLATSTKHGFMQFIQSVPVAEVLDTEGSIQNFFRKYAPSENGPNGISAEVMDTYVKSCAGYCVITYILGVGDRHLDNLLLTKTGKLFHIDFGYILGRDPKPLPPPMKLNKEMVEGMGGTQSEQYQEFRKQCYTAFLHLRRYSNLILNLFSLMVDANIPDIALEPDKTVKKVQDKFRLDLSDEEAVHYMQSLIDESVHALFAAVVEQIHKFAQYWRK
# Mus musculus = test: Increase in insulin levels in C57BL/6JRj mouse plasma at 50 mg/kg, po administered as single dose; type: functional, organism-based
# [5] = biological target: T2, Phosphatidylinositol 4,5-bisphosphate 3-kinase catalytic subunit delta isoform (Homo sapiens, UniProt O00329)
# T2 sequence (O00329 whole entry): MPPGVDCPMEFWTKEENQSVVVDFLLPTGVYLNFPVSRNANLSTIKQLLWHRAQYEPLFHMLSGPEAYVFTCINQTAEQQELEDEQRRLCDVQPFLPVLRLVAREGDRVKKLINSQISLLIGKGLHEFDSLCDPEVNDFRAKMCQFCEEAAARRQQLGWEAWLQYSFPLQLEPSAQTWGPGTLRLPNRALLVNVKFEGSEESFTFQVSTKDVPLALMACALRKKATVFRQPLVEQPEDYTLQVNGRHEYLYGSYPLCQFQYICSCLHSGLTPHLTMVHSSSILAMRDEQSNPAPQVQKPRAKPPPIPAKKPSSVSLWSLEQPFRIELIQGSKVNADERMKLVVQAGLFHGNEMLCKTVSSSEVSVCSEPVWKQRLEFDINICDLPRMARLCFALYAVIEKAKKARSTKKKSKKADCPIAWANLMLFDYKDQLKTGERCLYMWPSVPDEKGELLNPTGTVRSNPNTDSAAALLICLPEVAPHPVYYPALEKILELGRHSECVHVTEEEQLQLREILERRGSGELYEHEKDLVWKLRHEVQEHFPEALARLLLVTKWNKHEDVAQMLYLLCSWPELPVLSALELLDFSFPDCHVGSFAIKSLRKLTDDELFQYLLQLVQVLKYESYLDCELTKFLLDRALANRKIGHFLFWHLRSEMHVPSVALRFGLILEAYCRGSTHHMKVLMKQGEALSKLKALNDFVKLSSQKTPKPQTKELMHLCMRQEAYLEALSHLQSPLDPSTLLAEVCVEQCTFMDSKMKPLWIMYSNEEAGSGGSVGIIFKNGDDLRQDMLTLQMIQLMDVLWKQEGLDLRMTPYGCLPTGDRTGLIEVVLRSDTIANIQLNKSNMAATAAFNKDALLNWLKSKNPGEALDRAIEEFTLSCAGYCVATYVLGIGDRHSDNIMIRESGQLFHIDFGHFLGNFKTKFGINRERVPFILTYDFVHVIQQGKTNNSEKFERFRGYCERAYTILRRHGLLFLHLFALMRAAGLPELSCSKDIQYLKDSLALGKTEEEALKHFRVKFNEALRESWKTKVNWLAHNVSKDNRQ
# Description: Inhibition of human PI3Kdelta (108 to 1044 residues) expressed in mammalian expression system by KINOMEscan assay
# [6] = biological target: Phosphatidylinositol 4,5-bisphosphate 3-kinase catalytic subunit gamma isoform (Homo sapiens, UniProt P48736)
# Chain of Phosphatidylinositol 4,5-bisphosphate 3-kinase catalytic subunit gamma isoform (P48736 whole entry, canonical isoform): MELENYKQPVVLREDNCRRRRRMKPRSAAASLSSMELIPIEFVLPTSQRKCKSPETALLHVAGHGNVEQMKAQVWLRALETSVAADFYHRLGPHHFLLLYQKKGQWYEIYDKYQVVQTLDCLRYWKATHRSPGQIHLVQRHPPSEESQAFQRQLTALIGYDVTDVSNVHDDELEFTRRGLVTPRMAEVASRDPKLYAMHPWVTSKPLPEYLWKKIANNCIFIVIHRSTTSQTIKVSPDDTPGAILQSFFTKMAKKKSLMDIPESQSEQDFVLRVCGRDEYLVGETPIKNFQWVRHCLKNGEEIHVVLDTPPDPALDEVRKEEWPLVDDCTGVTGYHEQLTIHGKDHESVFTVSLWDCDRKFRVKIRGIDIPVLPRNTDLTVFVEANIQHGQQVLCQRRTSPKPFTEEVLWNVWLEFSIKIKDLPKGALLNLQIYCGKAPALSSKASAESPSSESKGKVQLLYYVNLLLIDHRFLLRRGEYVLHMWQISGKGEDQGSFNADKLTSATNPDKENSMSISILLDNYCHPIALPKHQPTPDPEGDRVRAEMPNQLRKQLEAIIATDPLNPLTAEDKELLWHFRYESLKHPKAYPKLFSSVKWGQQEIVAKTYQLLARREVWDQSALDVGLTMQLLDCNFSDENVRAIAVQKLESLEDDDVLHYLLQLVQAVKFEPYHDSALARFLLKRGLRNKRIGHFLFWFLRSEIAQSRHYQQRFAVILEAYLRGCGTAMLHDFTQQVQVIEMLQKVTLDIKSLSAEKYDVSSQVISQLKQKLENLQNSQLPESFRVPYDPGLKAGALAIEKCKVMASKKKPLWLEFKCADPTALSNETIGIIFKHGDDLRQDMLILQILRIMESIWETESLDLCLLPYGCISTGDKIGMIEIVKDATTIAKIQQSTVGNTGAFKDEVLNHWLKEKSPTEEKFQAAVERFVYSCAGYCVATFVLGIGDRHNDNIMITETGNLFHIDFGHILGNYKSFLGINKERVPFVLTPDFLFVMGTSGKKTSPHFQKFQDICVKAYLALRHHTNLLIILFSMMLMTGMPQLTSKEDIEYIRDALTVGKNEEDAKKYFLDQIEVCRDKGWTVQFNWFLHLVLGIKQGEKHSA
# Description: Inhibition of human PI3Kgamma (144 to 1102 residues) expressed in mammalian expression system by KINOMEscan assay
# [7] = Drug uptake in Sprague-Dawley rat brain at 10 mg/kg, po administered as single dose after 4 hrs; type: ADME, organism-based; settings: read-out: Drug uptake
# [8] = Ratio of drug level in Sprague-Dawley rat brain to plasma at 10 mg/kg, po administered as single dose; type: ADME, organism-based; settings: read-out: BPR
# [9] = biological target: Phosphatidylinositol 4-kinase beta (Homo sapiens, UniProt Q9UBF8)
# Chain of Phosphatidylinositol 4-kinase beta (Q9UBF8 whole entry): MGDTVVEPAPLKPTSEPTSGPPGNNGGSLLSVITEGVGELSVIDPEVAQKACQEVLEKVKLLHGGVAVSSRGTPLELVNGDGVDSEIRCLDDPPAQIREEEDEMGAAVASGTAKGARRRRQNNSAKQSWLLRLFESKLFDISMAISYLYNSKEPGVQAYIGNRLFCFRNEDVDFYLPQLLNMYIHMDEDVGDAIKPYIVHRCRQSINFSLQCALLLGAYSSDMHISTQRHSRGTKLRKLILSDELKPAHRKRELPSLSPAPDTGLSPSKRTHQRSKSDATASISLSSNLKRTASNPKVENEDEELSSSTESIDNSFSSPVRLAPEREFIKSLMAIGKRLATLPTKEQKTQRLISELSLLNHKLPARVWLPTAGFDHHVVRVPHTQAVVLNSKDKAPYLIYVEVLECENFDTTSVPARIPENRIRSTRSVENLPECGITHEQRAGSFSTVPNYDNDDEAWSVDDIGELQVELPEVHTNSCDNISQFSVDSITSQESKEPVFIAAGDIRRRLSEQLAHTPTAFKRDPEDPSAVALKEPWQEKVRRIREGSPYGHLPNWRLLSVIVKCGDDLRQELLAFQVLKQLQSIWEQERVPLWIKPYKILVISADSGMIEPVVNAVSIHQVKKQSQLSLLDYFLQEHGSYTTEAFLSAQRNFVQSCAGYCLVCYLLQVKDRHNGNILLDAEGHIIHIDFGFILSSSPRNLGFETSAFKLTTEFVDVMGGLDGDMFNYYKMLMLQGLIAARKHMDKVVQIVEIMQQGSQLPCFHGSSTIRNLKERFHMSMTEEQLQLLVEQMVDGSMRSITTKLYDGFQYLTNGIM
# Description: Inhibition of human PI4Kbeta (1 to 828 residues) expressed in mammalian expression system by KINOMEscan assay
# [10] = biological target: T1, Serine/threonine-protein kinase mTOR
# Description: Inhibition of human mTOR (1382 to 2549 residues) expressed in mammalian expression system by KINOMEscan assay
# Chain of Phosphatidylinositol 4,5-bisphosphate 3-kinase catalytic subunit beta isoform (P42338 whole entry, canonical isoform): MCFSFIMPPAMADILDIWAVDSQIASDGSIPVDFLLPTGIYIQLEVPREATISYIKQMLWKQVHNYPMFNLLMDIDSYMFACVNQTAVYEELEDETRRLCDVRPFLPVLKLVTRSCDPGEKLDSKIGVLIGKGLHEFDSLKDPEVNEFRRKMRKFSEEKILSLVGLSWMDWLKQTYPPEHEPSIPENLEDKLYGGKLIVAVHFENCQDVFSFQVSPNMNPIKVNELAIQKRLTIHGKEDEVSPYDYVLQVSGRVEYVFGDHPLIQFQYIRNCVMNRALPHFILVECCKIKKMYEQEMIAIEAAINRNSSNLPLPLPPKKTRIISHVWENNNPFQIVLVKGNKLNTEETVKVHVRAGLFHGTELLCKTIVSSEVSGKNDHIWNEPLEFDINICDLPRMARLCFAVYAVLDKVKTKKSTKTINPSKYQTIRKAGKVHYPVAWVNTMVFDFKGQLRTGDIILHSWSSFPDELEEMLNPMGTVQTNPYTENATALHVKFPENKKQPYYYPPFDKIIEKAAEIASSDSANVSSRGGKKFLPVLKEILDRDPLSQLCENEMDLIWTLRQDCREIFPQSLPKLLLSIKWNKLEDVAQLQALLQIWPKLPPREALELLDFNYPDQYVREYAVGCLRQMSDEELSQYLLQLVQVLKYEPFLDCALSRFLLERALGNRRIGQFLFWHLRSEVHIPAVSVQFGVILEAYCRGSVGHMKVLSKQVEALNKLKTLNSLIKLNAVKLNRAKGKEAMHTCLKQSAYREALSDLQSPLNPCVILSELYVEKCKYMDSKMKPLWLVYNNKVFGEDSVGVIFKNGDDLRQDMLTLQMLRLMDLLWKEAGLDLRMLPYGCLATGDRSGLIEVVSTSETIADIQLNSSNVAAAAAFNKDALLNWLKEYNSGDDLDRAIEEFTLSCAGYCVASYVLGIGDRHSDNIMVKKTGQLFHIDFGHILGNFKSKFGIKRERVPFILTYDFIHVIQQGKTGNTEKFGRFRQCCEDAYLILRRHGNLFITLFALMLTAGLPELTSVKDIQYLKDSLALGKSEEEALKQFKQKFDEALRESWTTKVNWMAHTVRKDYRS
Kd [1] [µM],Kd [2] [µM],Kd [3] [µM],Kd [4] [µM],Kd [5] [µM],Kd [6] [µM],concentration at 4 h [7] [ng/g],Kp [8],Kd [9] [µM],Kd [10] [µM],SMILES,Activity (Rattus norvegicus),Activity (Mus musculus)
0.002,–,–,–,–,–,–,–,–,–,CO[C@H]1C[C@@H]2CC[C@@H](C)[C@@](O)(O2)C(=O)C(=O)N2CCCC[C@H]2C(=O)O[C@H]([C@H](C)C[C@@H]2CC[C@@H](OCCO)[C@H](OC)C2)CC(=O)[C@H](C)/C=C(\C)[C@@H](O)[C@@H](OC)C(=O)[C@H](C)C[C@H](C)/C=C/C=C/C=C/1C [EVEROLIMUS],–,–
–,20,2.7,8.3,> 30,22,170,0.178,> 30,0.00085,CCC(CC)n1cnc2c(-c3cnc(N)cn3)nc(N3CC4CCC(C3)O4)nc21,inactive,inactive
